Tests used:
[1] = test system: COR-L95 (Small Cell Lung Carcinoma); test: Bliss excess, mean over the matrix (fraction); higher = more synergy
Method in brief: (§1)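 After 24 hours at 37°C and 5% CO2 in 1536-well plates, cells in DMEM/F12 or RPMI plus 10% FBS received two-drug dose matrices for 72 hours. Viability came from CellTiter-Glo 2.0 luminescence and was scaled as inhibition, anchored at 0 by vehicle wells and at 1 by blank wells. Combination Emax is taken as the second-highest inhibition in the matrix, and Bliss excess as the observed combination effect less EA + EB − EA·EB, with EA and EB the single-agent effects.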

[2] = test system: CTV-1 (T-Lymphoblastic Leukemia); test: as above
Method in brief: as §1

[3] = test system: DMS-273 (Small Cell Lung Carcinoma); test: as above
Method in brief: as §1

[4] = test system: NCI-H1793 (Lung Adenocarcinoma); test: as above
Method in brief: as §1

[5] = test system: OCI-AML2 (Acute Myeloid Leukemia); test: as above
Method in brief: as §1

[6] = test system: NCI-H1299 (Non-Small Cell Lung Carcinoma); test: as above
Method in brief: as §1

[7] = test system: NCI-H1781 (Lung Adenocarcinoma); test: as above
Method in brief: as §1

NCI-H2369 (Mesothelioma) = test: as above
Method in brief: as §1

SN12C (Kidney Carcinoma) = test: as above
Method in brief: as §1

NCI-H2595 (Mesothelioma) = test: combination Emax (second highest fraction inhibited in the dose matrix, 72 h); higher = more inhibition; extreme values may be limits of the assay
Method in brief: as §1

[8] = test system: COR-L95 (Small Cell Lung Carcinoma); test: as above
Method in brief: as §1

[9] = test system: TGBC24TKB (Biliary Tract Carcinoma); test: as above
Method in brief: as §1

[10] = test system: DMS-273 (Small Cell Lung Carcinoma); test: as above
Method in brief: as §1

[11] = test system: OCI-AML2 (Acute Myeloid Leukemia); test: as above
Method in brief: as §1

[12] = test system: HPAC (Pancreatic Carcinoma); test: as above
Method in brief: as §1

[13] = test system: NALM-6 (B-Lymphoblastic Leukemia); test: as above
Method in brief: as §1

[14] = test system: NCI-H1781 (Lung Adenocarcinoma); test: as above
Method in brief: as §1

IGR-1 (Melanoma) = test: as above
Method in brief: as §1

[15] = test system: IHH-4 (Thyroid Gland Carcinoma); test: as above
Method in brief: as §1

[16] = test system: G-292-Clone-A141B1 (Osteosarcoma); test: as above
Method in brief: as §1
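For Bliss excess, mean over the matrix in this document: after 72 h of two-drug dosing.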

| SMILES | Bliss excess [1] | Bliss excess [2] | Bliss excess [3] | Bliss excess [4] | Bliss excess [5] | Bliss excess [6] | Bliss excess [7] | Bliss excess (NCI-H2369 (Mesothelioma)) | Bliss excess (SN12C (Kidney Carcinoma)) | combination Emax (NCI-H2595 (Mesothelioma)) | combination Emax [8] | combination Emax [9] | combination Emax [10] | combination Emax [11] | combination Emax [12] | combination Emax [13] | combination Emax [14] | combination Emax (IGR-1 (Melanoma)) | combination Emax [15] | combination Emax [16] |
| --- | --- | --- | --- | --- | --- | --- | --- | --- | --- | --- | --- | --- | --- | --- | --- | --- | --- | --- | --- | --- |
| Cc1cc2ncnn2cc1Nc1ncc2c(n1)n(C1CCOCC1)c(=O)n2C [AZD7648] + C=CCn1c(=O)c2cnc(Nc3ccc(N4CCN(C)CC4)cc3)nc2n1-c1cccc(C(C)(C)O)n1 [AZD1775] (first compound max 10 µM, partner max 1 µM) | -0.0543 | 0.0096 | -0.0349 | 0.0622 | -0.0039 | -0.0314 | -0.0222 | 0.0034 | -0.0188 | 0.244 | 0.583 | 0.786 | 0.611 | 0.986 | 0.748 | 0.898 | 0.482 | 0.25 | 0.802 | 0.295 |
| Cc1cc2ncnn2cc1Nc1ncc2c(n1)n(C1CCOCC1)c(=O)n2C [AZD7648] + CCN(CCO)CCCOc1ccc2c(Nc3cc(CC(=O)Nc4cccc(F)c4)[nH]n3)ncnc2c1 [AZD2811] (first compound max 10 µM, 7x7, partner max 1 µM) | -0.003 | 0.0709 | -0.0368 | -0.005 | -0.0004 | 0.0093 | 0.0239 | 0.0252 | -0.01 | 0.203 | 0.256 | 0.566 | 0.82 | 0.702 | 0.155 | 0.771 | 0.671 | 0.0874 | 0.454 | 0.291 |
| Cc1cc2ncnn2cc1Nc1ncc2c(n1)n(C1CCOCC1)c(=O)n2C [AZD7648] + CN(C)CCCOc1ccc(-c2ccc3ncc4c(c3c2)n(C2CCOCC2)c(=O)n4C)cn1 [AZD0156] (first compound max 10 µM, 7x7, partner max 1 µM) | -0.0218 | 0.0449 | 0.05 | 0.0044 | -0.022 | 0.0177 | 0.0151 | 0.0327 | -0.0388 | 0.208 | 0.233 | 0.357 | 0.411 | 0.367 | 0.169 | 0.323 | 0.352 | 0.0864 | 0.329 | 0.341 |
| Cc1cc2ncnn2cc1Nc1ncc2c(n1)n(C1CCOCC1)c(=O)n2C [AZD7648] + C[C@@H]1COCCN1C2=NC(=NC(=C2)C3(CC3)[S@](=N)(=O)C)C4=C5C=CNC5=NC=C4 [AZD6738] (first compound max 10 µM, 7x7, partner max 10 µM) | -0.0029 | -0.0024 | 0.0094 | -0.0059 | 0.0045 | 0.0116 | 0.103 | 0.008 | 0.0264 | 0.208 | 0.621 | 0.786 | 0.788 | 0.986 | 0.672 | 0.932 | 0.443 | 0.348 | 0.756 | 0.334 |
| Cc1cc2ncnn2cc1Nc1ncc2c(n1)n(C1CCOCC1)c(=O)n2C [AZD7648] + O=C(c1cc(Cc2n[nH]c(=O)c3ccccc23)ccc1F)N1CCN(C(=O)C2CC2)CC1 [Olaparib] (first compound max 10 µM, 7x7, partner max 10 µM) | -0.0158 | 0.0056 | 0.0268 | -0.0616 | -0.0289 | -0.03 | -0.0204 | -0.05 | -0.0469 | 0.116 | 0.363 | 0.276 | 0.553 | 0.723 | 0.0971 | 0.513 | 0.413 | 0.164 | 0.219 | 0.121 |
| NC1(C(=O)N[C@@H](CCO)c2ccc(Cl)cc2)CCN(c2ncnc3[nH]ccc23)CC1 [Capivasertib] + CC(=O)c1c(C)c2cnc(Nc3ccc(N4CCNCC4)cn3)nc2n(C2CCCC2)c1=O [Palbociclib] (first compound max 10 µM, 7x7, partner max 10 µM) | -0.0565 | 0.0198 | -0.0309 | -0.0287 | 0.0134 | 0.0662 | -0.0326 | 0.0133 | -0.0265 | 0.214 | 0.172 | 0.556 | 0.817 | 0.804 | 0.589 | 0.858 | 0.479 | 0.831 | 0.618 | 0.333 |
| NC1(C(=O)N[C@@H](CCO)c2ccc(Cl)cc2)CCN(c2ncnc3[nH]ccc23)CC1 [Capivasertib] + CC(C)n1c(=O)n(C)c2cnc3cc(F)c(-c4ccc(OCCCN5CCCCC5)nc4)cc3c21 [AZD1390] (first compound max 10 µM, 7x7, partner max 0.3 µM) | -0.0425 | -0.0908 | -0.0281 | -0.0745 | -0.0448 | -0.0362 | -0.0696 | -0.0104 | -0.0454 | 0.279 | 0.164 | 0.25 | 0.71 | 0.586 | 0.252 | 0.675 | 0.485 | 0.334 | 0.203 | 0.219 |
| NC1(C(=O)N[C@@H](CCO)c2ccc(Cl)cc2)CCN(c2ncnc3[nH]ccc23)CC1 [Capivasertib] + CCN(CCO)CCCOc1ccc2c(Nc3cc(CC(=O)Nc4cccc(F)c4)[nH]n3)ncnc2c1 [AZD2811] (first compound max 10 µM, 7x7, partner max 1 µM) | -0.0075 | 0.0423 | -0.0015 | -0.0515 | 0.0134 | 0.0012 | -0.0433 | -0.0446 | -0.0536 | 0.261 | 0.172 | 0.58 | 0.906 | 0.904 | 0.395 | 0.907 | 0.799 | 0.465 | 0.618 | 0.245 |
| NC1(C(=O)N[C@@H](CCO)c2ccc(Cl)cc2)CCN(c2ncnc3[nH]ccc23)CC1 [Capivasertib] + COc1nnc2ccc(N3CCC(c4ccc(OCCN5CCN(C)C(=O)[C@H]5C)cc4)CC3)nn12 [AZD5153] (first compound max 10 µM, 7x7, partner max 1 µM) | -0.0272 | 0.0097 | 0.0231 | 0.0278 | 0.0068 | 0.0174 | 0.0513 | 0.004 | -0.0155 | 0.301 | 0.399 | 0.789 | 0.884 | 1 | 0.68 | 0.945 | 0.527 | 0.406 | 0.636 | 0.573 |
| NC1(C(=O)N[C@@H](CCO)c2ccc(Cl)cc2)CCN(c2ncnc3[nH]ccc23)CC1 [Capivasertib] + C[C@@H]1COCCN1C2=NC(=NC(=C2)C3(CC3)[S@](=N)(=O)C)C4=C5C=CNC5=NC=C4 [AZD6738] (first compound max 10 µM, 7x7, partner max 10 µM) | -0.0644 | 0.0489 | -0.0377 | 0.0097 | -0.0474 | -0.0309 | -0.032 | -0.0127 | -0.0044 | 0.29 | 0.542 | 0.711 | 0.856 | 0.983 | 0.545 | 0.984 | 0.685 | 0.713 | 0.859 | 0.538 |
| NC1(C(=O)N[C@@H](CCO)c2ccc(Cl)cc2)CCN(c2ncnc3[nH]ccc23)CC1 [Capivasertib] + Cn1cnc2c(F)c(Nc3ccc(Br)cc3Cl)c(C(=O)NOCCO)cc21 [Selumetinib] (first compound max 10 µM, 7x7, partner max 10 µM) | -0.0359 | 0.106 | -0.003 | -0.0292 | 0.0547 | 0.0153 | 0.105 | -0.0292 | 0.0041 | 0.29 | 0.22 | 0.556 | 0.837 | 1 | 0.783 | 0.697 | 0.695 | 0.915 | 0.607 | 0.371 |
| Cc1nc(Nc2ncc(C(=O)Nc3c(C)cccc3Cl)s2)cc(N2CCN(CCO)CC2)n1 [Dasatinib] + CC(=O)Nc1cccc(-n2c(=O)n(C3CC3)c(=O)c3c(Nc4ccc(I)cc4F)n(C)c(=O)c(C)c32)c1 [Trametinib] (first compound max 2 µM, 7x7, partner max 1 µM) | -0.0318 | 0.0181 | -0.0922 | -0.0406 | 0.0363 | 0.035 | -0.0355 | -0.0535 | -0.0254 | 0.265 | 0.128 | 0.736 | 0.323 | 1 | 0.893 | 0.621 | 0.34 | 0.351 | 0.896 | 0.722 |
| COc1cccc2c1C(=O)c1c(O)c3c(c(O)c1C2=O)C[C@@](O)(C(=O)CO)C[C@@H]3O[C@H]1C[C@H](N)[C@H](O)[C@H](C)O1 [Doxorubicin] + Cc1cc2ncnn2cc1Nc1ncc2c(n1)n(C1CCOCC1)c(=O)n2C [AZD7648] (first compound max 1 µM, 7x7, partner max 10 µM) | 0.0084 | 0.119 | 0.0727 | 0.0117 | 0.0125 | 0.0329 | 0.0578 | 0.029 | 0.0191 | 0.531 | 0.865 | 0.318 | 0.866 | 1 | 0.633 | 1 | 0.932 | 0.697 | 0.951 | 0.247 |
| COc1cc2ncnc(Nc3ccc(F)c(Cl)c3)c2cc1OCCCN1CCOCC1 [Gefitinib] + CC(C)n1c(=O)n(C)c2cnc3cc(F)c(-c4ccc(OCCCN5CCCCC5)nc4)cc3c21 [AZD1390] (first compound max 10 µM, 7x7, partner max 0.3 µM) | -0.0119 | -0.0468 | -0.0068 | -0.0406 | -0.041 | -0.0561 | -0.0801 | -0.0614 | -0.0255 | 0.129 | 0.261 | 0.348 | 0.325 | 0.083 | 0.222 | 0.176 | 0.538 | 0.635 | 0.0356 | 0.0339 |

— the supplement of paper PMC11061612
